Test results from patent US9434716B2, “Antigen binding proteins” (Glaxo Group Limited, priority 2011, dated 2016).
Numbering of substitutions follows the chain as printed.

Experiments:
human SAP [1] = target: T1, human SAP (Homo sapiens, UniProt P02743); test: Biacore kinetics, human SAP captured on immobilised O-phosphoethanolamine; type: binding; settings: amino acid scan at position 91 of SAP-K L0 light chain
T1 construct: from tissue; host or cells: natural human SAP, purified
Experimental: O-phosphoethanolamine was immobilised on a Biacore CM5 chip by primary amine coupling in accordance with the manufacturer's instructions. Human SAP was then captured on the surface in the presence of calcium chloride, in order to replicate in the Biacore system in vitro, the precise orientation of SAP molecules bound to amyloid fibrils in vivo. Anti SAP antibodies were then passed over this surface at 256, 64, 16, 4, 1 nM and a binding sensorgrams obtained. Analysis was carried out at 25° C. using 4% BSA, 10 mM Tris, 140 mM NaCl, 2 mM CaCl2, 0.05% surfactant P20, 0.02% Na N3, pH 8.0 as running buffer. […] Data generated were double referenced with a buffer injection over the human SAP surface and analyzed using the bivalent analyte model in the Biacore T100 evaluation software.

[2] = initial clinical studies; cited from earlier work
circulating SAP = target: T2, circulating SAP (Homo sapiens, UniProt P02743); settings: for as long as the drug is administered; cited from earlier work
T2 construct: host or cells: circulating plasma protein in vivo
T2 sequence (P02743 20-223): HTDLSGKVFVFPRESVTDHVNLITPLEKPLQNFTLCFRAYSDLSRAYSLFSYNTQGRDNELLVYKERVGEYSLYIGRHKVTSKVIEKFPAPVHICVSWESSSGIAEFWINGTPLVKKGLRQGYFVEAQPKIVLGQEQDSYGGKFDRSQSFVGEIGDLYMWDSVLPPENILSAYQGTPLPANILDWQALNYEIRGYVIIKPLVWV

human SAP [3] = target: T1, human SAP; test: Biacore off-rate ranking, SAP immobilised on C1 chip; type: binding; settings: culture supernatants, chimera purified at […], single curve, for ranking, 25° C.
Experimental: Human and cynomologus monkey SAP were immobilised on a Biacore C1 chip by primary amine coupling in accordance with the manufacturer's instructions. […] All runs were double referenced with a buffer injection for purified sample or media for the supernatant samples over the human and cyno SAP surfaces. Analysis was carried out at 25° C. using HBS-EP buffer. […] Data were analysed using the 1 to 1 dissociation model within the Biacore T100 evaluation software.
The data generated in Tables 6a and 6b show off-rates (kd) of the humanised SAP-E and SAP-K antibody supernatants respectively. The values were based on a single curve and used for ranking purposes between the different constructs for binding to human SAP. […] The SAP-E humanised L1 light chain was the best light chain variant and combination of the L1 with the H1 heavy chain variant gave a humanised antibody with an acceptable off-rate whilst keeping the number of back mutations to a minimum.

T1 sequence (P02743 20-223): as above

## glycine
Human SAP [1]
  binding with respect to H3L0: improved binding with respect to H3L0, but to a lesser extent than alanine

## valine
Human SAP [1]
  binding with respect to H3L0: improved binding with respect to H3L0, but to a lesser extent than alanine

## serine
Human SAP [1]
  binding with respect to H3L0: improved binding with respect to H3L0, but to a lesser extent than alanine

## O=C(O)[C@H]1CCCN1C(=O)CCCCC(=O)N1CCC[C@@H]1C(=O)O [CPHPC, (R)-1-[6-[(R)-2-Carboxy-pyrrolidin-1-yl]-6-oxo-hexanoyl]pyrrolidine-2-carboxylic acid]
[2]
  effect on amyloid: did not produce amyloid regression
Circulating SAP
  depletion of circulating SAP: depletes almost all circulating SAP

B1: SAP-K H1L1: humanised SAP-K, VH SEQ ID NO:38, VL SEQ ID NO:42 (antibody, V domains shown)
VH: QVQLVQSGAEVKKPGSSVKVSCKASGYTFTSYWMHWVRQAPGQGLEWMGMIHPNSVNTNYNEKFKSRVTITADKSTSTAYMELSSLRSEDTAVYYCARRNDYYWYFDVWGQGTLVTVSS
VL: DIQMTQSPSSLSASVGDRVTITCKASQNVNSNVAWYQQKPGKAPKALIYSASYRYSGVPSRFSGSGSGTDFTLTISSLQPEDFATYYCQQCNNYPFTFGQGTKLEIK
Human SAP [3]
  kd: 0.0296 s⁻¹

B2: SAP-K H2L1: humanised SAP-K, VH SEQ ID NO:39, VL SEQ ID NO:42 (antibody, V domains shown)
VH: B1 VH with M48I, V68A
VL: B1 VL
Human SAP [3]
  kd: 0.0321 s⁻¹

B3: SAP-K H0L1: humanised SAP-K, VH SEQ ID NO:37, VL SEQ ID NO:42 (antibody, V domains shown)
VH: B1 VH with Y27G, T30S
VL: B1 VL
Human SAP [3]
  kd: 0.0479 s⁻¹
